Results as given in ChEMBL document CHEMBL1201862, “PubChem BioAssay data set” (2004).
Active and inactive are the calls of the source.

Legend:
[1] = Shn3 3'UTR reporter inhibitors, dose response, cell-based, Clone20 osteoblasts, firefly luciferase, cherry-picked (AID 624132); format: functional;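 also: firefly luciferase luminescence from reporter carrying the Shn3 3'UTR in osteoblasts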
[2] = HepG2 cell cytotoxicity, dose response, cytotoxicity control for Shn3 inhibitor project, CellTiter-Glo, cherry-picked (AID 624134); format: functional, cell-based
[3] = control 3'UTR Renilla luciferase suppression, dose response, counter-screen for Shn3 inhibitor project, cell-based, Clone20-Shn3RL, cherry-picked (AID 624133); format: functional
[4] = biological target: 1-phosphatidylinositol 4,5-bisphosphate phosphodiesterase gamma-1 (Homo sapiens, UniProt P19174); experiment: Counterscreen for inhibitors of phospholipase C isozymes (PLC-B3): Fluorescence-based biochemical high throughput dose response assay to identify inhibitors of phospholipase C isozymes (PLC-gamma1).
[5] = biological target: 1-phosphatidylinositol 4,5-bisphosphate phosphodiesterase beta-3 (Homo sapiens, UniProt Q01970); experiment: Fluorescence-based biochemical high throughput dose response assay to identify inhibitors of phospholipase C isozymes (PLC-B3).
fMet-Leu-Phe receptor = fMet-Leu-Phe receptor (Homo sapiens, UniProt P21462); experiment: FPR ligands, dose response (AID 519); format: functional
cells [6] = format: functional, cell-based
[7] = biological target: T1, Nuclear receptor subfamily 0 group B member 1 (Homo sapiens, UniProt P51843); format: functional, cell-based;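 also: HEK293T cells transfected with SF-1 and DAX-1 plus StAR promoter luciferase reporter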
T1 sequence (P51843 whole entry): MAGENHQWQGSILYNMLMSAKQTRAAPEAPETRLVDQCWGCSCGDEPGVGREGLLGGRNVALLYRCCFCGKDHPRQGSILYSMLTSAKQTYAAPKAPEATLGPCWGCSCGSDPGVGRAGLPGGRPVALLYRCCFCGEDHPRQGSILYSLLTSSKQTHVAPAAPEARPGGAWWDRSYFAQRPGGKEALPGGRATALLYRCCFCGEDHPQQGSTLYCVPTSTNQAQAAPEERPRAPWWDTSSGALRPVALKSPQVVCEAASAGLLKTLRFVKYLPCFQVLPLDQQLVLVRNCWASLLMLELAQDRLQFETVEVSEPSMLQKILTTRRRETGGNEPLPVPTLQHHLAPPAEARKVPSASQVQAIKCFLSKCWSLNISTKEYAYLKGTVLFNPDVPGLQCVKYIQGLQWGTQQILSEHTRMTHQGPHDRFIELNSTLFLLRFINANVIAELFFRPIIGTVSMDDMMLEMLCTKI

Galanin receptor type 3 = biological target: T2, Galanin receptor type 3 (Homo sapiens, UniProt O60755); experiment: Fluorescence-based cell-based primary high throughput dose response assay to identify antagonists of the Galanin Receptor 3 (GalR3).; format: functional
T2 sequence (O60755 whole entry): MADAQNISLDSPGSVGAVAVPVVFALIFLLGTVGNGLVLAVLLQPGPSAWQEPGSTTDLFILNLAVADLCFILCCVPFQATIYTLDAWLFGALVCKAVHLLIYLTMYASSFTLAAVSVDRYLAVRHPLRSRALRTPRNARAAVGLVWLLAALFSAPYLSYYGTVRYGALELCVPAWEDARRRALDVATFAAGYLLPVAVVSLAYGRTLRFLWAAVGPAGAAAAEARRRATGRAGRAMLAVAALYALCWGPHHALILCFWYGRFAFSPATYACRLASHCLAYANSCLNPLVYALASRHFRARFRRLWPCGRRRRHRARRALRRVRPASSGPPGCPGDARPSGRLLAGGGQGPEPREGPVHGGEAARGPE

cells [8] = format: functional, cell-based; details: HEK-CNG
Major prion protein = Major prion protein (Homo sapiens, UniProt P04156); format: functional, cell-based
cells [9] = experiment: cells
Paired box protein Pax-8 = Paired box protein Pax-8 (Homo sapiens, UniProt Q06710); experiment: inhibitors of PAX8-driven TPO luciferase reporter, dose response, RMG-I cells, cherry-pick (AID 687027); format: functional, cell-based;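 also: luciferase reporter driven by Pax8 target thyroperoxidase promoter measured by SteadyGlo luminescence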
[10] = IGROV1 ovarian cancer cell cytotoxicity, dose response, PAX8 inhibitor project, plate reader, dry powder samples (AID 743043); format: functional, cell-based; details: IGROV-1
[11] = cytotoxicity in OVCAR8 ovarian cancer cells, dose response, PAX8 project, cell-based, plate reader, dry powder samples (AID 743197); format: functional; details: OVCAR-8
[12] = biological target: Long-chain-fatty-acid--AMP ligase FadD28 (Mycobacterium tuberculosis, UniProt P9WQ59); experiment: Fluorescence polarization aasay to screen for inhibitors that compete for the binding of FadD28 to a bisubstrate Measured in Biochemical System Using Plate Reader - 2147-01_Inhibitor_Dose_CherryPick_Activity.; format: functional, Mycobacterium tuberculosis H37Rv
[13] = HEK293T cytotoxicity, dose response, cytotoxicity control for miR-122 modulator project, cell-based, inhibitor set, cherry-pick, set 2 (AID 720697); format: functional
Protein Wnt-3a = Protein Wnt-3a (Mus musculus, UniProt P27467); experiment: SAR analysis of small molecule antagonists of Gli-SUFU in a Wnt3a luminescent reporter assay.; format: functional
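For EC50 in this document: target is galanin receptor GalR3 read with a cAMP biosensor in HEK293 cells.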

For `O=C(c1cccc(S(=O)(=O)N2CCN(c3ccc(F)cc3)CC2)c1)N1CCCC(C(F)(F)F)C1` (configuration not stated), which AC50 [1] is on record?
Its AC50 is 0.942 µM (active).

And the AC50 [2]?
The AC50 was 2.61 µM (active).

What about the AC50 [3] of the same molecule?
Its AC50 is 8.1 µM (active).

What about the IC50 [4] of the same molecule?
The IC50 was > 122 µM (inactive).

And the IC50 [5]?
The IC50 was > 122 µM (inactive).

With `O=C(C1=C(O)C(=O)N(Cc2ccccc2)C1c1cccnc1)c1ccco1` (configuration not stated) as the molecule, how does the Ki (fMet-Leu-Phe receptor) read?
Its Ki is 30.5 µM (inactive).

With `C/C(=N\NC(=O)c1ccccc1O)c1cccs1` as the molecule, how does the IC50 (cells [6]) read?
Its IC50 is > 67.5 µM (inactive).

And the IC50 [7]?
The IC50 was > 67.5 µM (inactive).

Which IC50 (Galanin receptor type 3) does the source give for `Cc1cc(Br)cn2c(Cc3cccc(Cl)c3)c(-c3ccco3)nc12` here?
The IC50 was 8.41 µM (active).

What about the EC50 (cells [8]) of the same molecule?
The EC50 was > 29.9 µM (inactive).

And the IC50 (Major prion protein)?
The IC50 was 10.5 µM (inactive).

What about the IC50 (cells [9]) of the same molecule?
Its IC50 is 66.2 µM (inactive).

With `N#Cc1ccc(-c2nc3ccc(Br)cn3c2Cc2cccc(F)c2)cc1` as the molecule, how does the IC50 (Major prion protein) read?
Its IC50 is 2.98 µM (active).

What about the IC50 (cells [9]) of the same molecule?
The IC50 was > 138 µM (inactive).

Which AC50 (Paired box protein Pax-8) does the source give for `C[C@@H]1CN([C@@H](C)CO)C(=O)c2cc(NC(=O)Cc3ccccc3)ccc2O[C@@H](C)CCCCO[C@@H]1CN(C)Cc1ccc(C(F)(F)F)cc1` here?
The AC50 was 7.23 µM (active).

And the AC50 [10]?
The AC50 was 31.7 µM (active).

And the AC50 [11]?
The AC50 was > 70 µM (inactive).

For `O=c1c2c(O)cc(CSc3nnnn3-c3ccccc3)nc2[nH]n1-c1ccccc1`, which AC50 [12] is on record?
Its AC50 is > 100 µM (inactive).

For `CNC(=O)C[C@@H]1CC[C@@H]2[C@H](COc3ccc(NC(=O)Nc4ccc(Cl)cc4)cc3C(=O)N2C)O1`, which AC50 [13] is on record?
The AC50 was 0.415 µM (active).

Which AC50 [13] does the source give for `COc1ccccc1C(=O)N1C[C@@H]2[C@H](c3ccccc31)[C@H](CO)N2CC1CCCC1` here?
Its AC50 is 9.28 µM (active).

With `CCC(C)Nc1cc(NC(=O)c2ccccc2)ncn1` (configuration not stated) as the molecule, how does the IC50 (Protein Wnt-3a) read?
Its IC50 is > 21.8 µM (inactive).

With `CCN(CC)c1cc(NC(=O)c2ccccc2)nc(C)n1` as the molecule, how does the IC50 (Protein Wnt-3a) read?
Its IC50 is > 21.8 µM (inactive).
